Reference: patent US10131652B2, “Pyrimidinyloxy benzene derivatives as herbicides” (E. I. DU PONT DE NEMOURS AND COMPANY, priority 2014, dated 2018)
Like-named read-outs stand apart in the source and are kept apart here.

Columns and labels:
Assay type in all cases: in vivo
[1] = test system: ducksalad (Heteranthera limosa); test: Test C flooded paddy test plant response; conditions: Heteranthera limosa; Flood, 250 g ai/ha; scale of 0 to 100 where 0 is no effect and 100 is complete control; 13 to 15 days; read-out: Ducksalad plant response rating
Summary of the method: (§1)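 Plants grown to 2-leaf stage, flooded 3 cm above soil; compounds applied directly into paddy water, depth kept throughout. Visual rating versus controls after 13 to 15 days in greenhouse, 0 (no effect) to 100 (complete control).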

[2] = test system: small-flower umbrella sedge (Cyperus difformis); test: Test C flooded paddy test plant response; conditions: Cyperus difformis; Flood, 250 g ai/ha; scale of 0 to 100 where 0 is no effect and 100 is complete control; 13 to 15 days; read-out: Sedge, Umbrella plant response rating
Summary of the method: as §1

rice (Oryza sativa) = test: Test C flooded paddy test plant response; conditions: Oryza sativa; Flood, 250 g ai/ha; scale of 0 to 100 where 0 is no effect and 100 is complete control; 13 to 15 days; read-out: Rice plant response rating
Summary of the method: as §1

[3] = test system: barnyardgrass (Echinochloa crus-galli); test: Test C flooded paddy test plant response; conditions: Echinochloa crus-galli; Flood, 250 g ai/ha; scale of 0 to 100 where 0 is no effect and 100 is complete control; 13 to 15 days; read-out: Barnyardgrass plant response rating
Summary of the method: as §1

[4] = test system: yellow nutsedge (Cyperus esculentus); test: Test D pre-/postemergence plant response; conditions: Cyperus; for pest or weed control at 8 g/ha: 8 g ai/ha; for pest or weed control at 16 g/ha: 16 g ai/ha; for pest or weed control at 31 g/ha: 31 g ai/ha; for pest or weed control at 62 g/ha: 62 g ai/ha
Summary of the method: (§2)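 Visual injury scoring (0–100) at 13 to 15 days in greenhouse. Preemergence sprays on seeded loam/sand; postemergence sprays on 1–4 leaf plants.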

[5] = test system: velvetleaf (Abutilon theophrasti); test: Test D pre-/postemergence plant response; conditions: Abutilon theophrasti; for pest or weed control at 8 g/ha: 8 g ai/ha; for pest or weed control at 16 g/ha: 16 g ai/ha; for pest or weed control at 31 g/ha: 31 g ai/ha; for pest or weed control at 62 g/ha: 62 g ai/ha
Summary of the method: as §2

[6] = test system: oilseed rape (Brassica napus); test: Test D pre-/postemergence plant response; conditions: Brassica napus; for plant injury at 8 g/ha: 8 g ai/ha; for plant injury at 16 g/ha: 16 g ai/ha; for plant injury at 31 g/ha: 31 g ai/ha; for plant injury at 62 g/ha: 62 g ai/ha
Summary of the method: as §2

soybean (Glycine max) = test: Test D pre-/postemergence plant response; conditions: Glycine max; for plant injury at 8 g/ha: 8 g ai/ha; for plant injury at 16 g/ha: 16 g ai/ha; for plant injury at 31 g/ha: 31 g ai/ha; for plant injury at 62 g/ha: 62 g ai/ha
Summary of the method: as §2

[7] = test system: large (Lg) crabgrass (Digitaria sanguinalis); test: Test D pre-/postemergence plant response; conditions: Digitaria sanguinalis; for pest or weed control at 8 g/ha: 8 g ai/ha; for pest or weed control at 16 g/ha: 16 g ai/ha; for pest or weed control at 31 g/ha: 31 g ai/ha; for pest or weed control at 62 g/ha: 62 g ai/ha
Summary of the method: as §2

[8] = test system: winter wheat (Triticum aestivum); test: Test D pre-/postemergence plant response; conditions: Triticum aestivum; for plant injury at 8 g/ha: 8 g ai/ha; for plant injury at 16 g/ha: 16 g ai/ha; for plant injury at 31 g/ha: 31 g ai/ha; for plant injury at 62 g/ha: 62 g ai/ha
Summary of the method: as §2

[9] = test system: johnsongrass (Sorghum halepense); test: Test D pre-/postemergence plant response; conditions: Sorghum halepense; for pest or weed control at 8 g/ha: 8 g ai/ha; for pest or weed control at 16 g/ha: 16 g ai/ha; for pest or weed control at 31 g/ha: 31 g ai/ha; for pest or weed control at 62 g/ha: 62 g ai/ha
Summary of the method: as §2

wild oat (Avena fatua) = test: Test D postemergence plant response
Summary of the method: (§3)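 Postemergence spray on plants 2–18 cm tall (1- to 4-leaf stage), grown in pots of peat/vermiculite medium. Plants were kept in a greenhouse for 13–15 days, then visually rated against untreated controls on a 0 (no effect) to 100 (complete control) scale.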

kochia (Kochia scoparia) = test: Test D postemergence plant response
Summary of the method: as §3

[10] = test system: chickweed (common chickweed, Stellaria media); test: Test D postemergence plant response
Summary of the method: as §3

[11] = post-emergence, Postemergence, scale 0 to 100 (0 no effect, 100 complete control), read-out: Nutsedge, Yellow plant response rating
[12] = pre-emergence, Preemergence, scale 0 to 100 (0 no effect, 100 complete control), read-out: Plant response rating, Nutsedge, Yellow
[13] = post-emergence, Postemergence, scale 0 to 100 (0 no effect, 100 complete control), read-out: Velvetleaf plant response rating
[14] = pre-emergence, Preemergence, scale 0 to 100 (0 no effect, 100 complete control), read-out: Plant response rating, Velvetleaf
[15] = post-emergence, Postemergence, scale 0 to 100 (0 no effect, 100 complete control), read-out: Oilseed Rape plant response rating
[16] = pre-emergence, Preemergence, scale 0 to 100 (0 no effect, 100 complete control), read-out: Plant response rating, Oilseed Rape
[17] = post-emergence, Postemergence, scale 0 to 100 (0 no effect, 100 complete control), read-out: Soybean plant response rating
[18] = pre-emergence, Preemergence, scale 0 to 100 (0 no effect, 100 complete control), read-out: Plant response rating, Soybean
[19] = post-emergence, Postemergence, scale 0 to 100 (0 no effect, 100 complete control), read-out: Crabgrass, Large plant response rating
[20] = pre-emergence, Preemergence, scale 0 to 100 (0 no effect, 100 complete control), read-out: Plant response rating, Crabgrass, Large
[21] = post-emergence, Postemergence, scale 0 to 100 (0 no effect, 100 complete control), read-out: Wheat plant response rating
[22] = pre-emergence, Preemergence, scale 0 to 100 (0 no effect, 100 complete control), read-out: Plant response rating, Wheat
[23] = post-emergence, Postemergence, scale 0 to 100 (0 no effect, 100 complete control), read-out: Johnsongrass plant response rating
[24] = pre-emergence, Preemergence, scale 0 to 100 (0 no effect, 100 complete control), read-out: Plant response rating, Johnsongrass

**Q.** What does the source list for `FC(F)c1cc(-c2ccccc2Oc2ncc(Cl)cn2)no1` [Compound 35, 5-chloro-2-[2-[5-(difluoromethyl)-3-isoxazolyl]phenoxy]pyrimidine]?
**A.** pest or weed control at 250 g/ha [1]: 100%; pest or weed control at 250 g/ha [2]: 100%; plant injury at 250 g/ha (rice (Oryza sativa)): 80%; pest or weed control at 250 g/ha [3]: 65%; pest or weed control at 8 g/ha ([4]; post-emergence, Postemergence, read-out: Plant response rating (scale 0 to 100), Nutsedge, Yellow): 5%; pest or weed control at 16 g/ha [4, 11]: 5%; pest or weed control at 31 g/ha [4, 11]: 5%; pest or weed control at 62 g/ha ([4]; post-emergence, Postemergence, scale 0 to 100, 0 no effect, 100 complete control, read-out: Plant response rating, Nutsedge, Yellow): 5%; pest or weed control at 8 g/ha [4, 12]: 0%; pest or weed control at 16 g/ha [4, 12]: 0%; pest or weed control at 31 g/ha [4, 12]: 5%; pest or weed control at 62 g/ha [4, 12]: 5%; pest or weed control at 8 g/ha ([5]; post-emergence, Postemergence, read-out: Plant response rating (scale 0 to 100), Velvetleaf): 30%; pest or weed control at 16 g/ha [5, 13]: 50%; pest or weed control at 31 g/ha [5, 13]: 55%; pest or weed control at 62 g/ha ([5]; post-emergence, Postemergence, scale 0 to 100, 0 no effect, 100 complete control, read-out: Plant response rating, Velvetleaf): 65%; pest or weed control at 8 g/ha [5, 14]: 65%; pest or weed control at 16 g/ha [5, 14]: 85%; pest or weed control at 31 g/ha [5, 14]: 85%; pest or weed control at 62 g/ha [5, 14]: 100%; plant injury at 8 g/ha ([6]; post-emergence, Postemergence, read-out: Plant response rating (scale 0 to 100), Oilseed Rape): 5%; plant injury at 16 g/ha [6, 15]: 45%; plant injury at 31 g/ha [6, 15]: 80%; plant injury at 62 g/ha ([6]; post-emergence, Postemergence, scale 0 to 100, 0 no effect, 100 complete control, read-out: Plant response rating, Oilseed Rape): 98%; plant injury at 8 g/ha [6, 16]: 85%; plant injury at 16 g/ha [6, 16]: 98%; plant injury at 31 g/ha [6, 16]: 100%; plant injury at 62 g/ha [6, 16]: 100%; plant injury at 8 g/ha (soybean (Glycine max); post-emergence, Postemergence, read-out: Plant response rating (scale 0 to 100), Soybean): 40%; plant injury at 16 g/ha (soybean (Glycine max); [17]): 65%; plant injury at 31 g/ha (soybean (Glycine max); [17]): 80%; plant injury at 62 g/ha (soybean (Glycine max); post-emergence, Postemergence, scale 0 to 100, 0 no effect, 100 complete control, read-out: Plant response rating, Soybean): 95%; plant injury at 8 g/ha (soybean (Glycine max); [18]): 10%; plant injury at 16 g/ha (soybean (Glycine max); [18]): 30%; plant injury at 31 g/ha (soybean (Glycine max); [18]): 60%; plant injury at 62 g/ha (soybean (Glycine max); [18]): 85%; pest or weed control at 8 g/ha ([7]; post-emergence, Postemergence, read-out: Plant response rating (scale 0 to 100), Crabgrass, Large): 5%; pest or weed control at 16 g/ha [7, 19]: 10%; pest or weed control at 31 g/ha [7, 19]: 10%; pest or weed control at 62 g/ha ([7]; post-emergence, Postemergence, scale 0 to 100, 0 no effect, 100 complete control, read-out: Plant response rating, Crabgrass, Large): 10%; pest or weed control at 8 g/ha [7, 20]: 80%; pest or weed control at 16 g/ha [7, 20]: 100%; pest or weed control at 31 g/ha [7, 20]: 100%; pest or weed control at 62 g/ha [7, 20]: 100%; plant injury at 8 g/ha ([8]; post-emergence, Postemergence, read-out: Plant response rating (scale 0 to 100), Wheat): 0%; plant injury at 16 g/ha [8, 21]: 0%; plant injury at 31 g/ha [8, 21]: 5%; plant injury at 62 g/ha ([8]; post-emergence, Postemergence, scale 0 to 100, 0 no effect, 100 complete control, read-out: Plant response rating, Wheat): 10%; plant injury at 8 g/ha [8, 22]: 0%; plant injury at 16 g/ha [8, 22]: 0%; plant injury at 31 g/ha [8, 22]: 5%; plant injury at 62 g/ha [8, 22]: 15%; pest or weed control at 8 g/ha ([9]; post-emergence, Postemergence, read-out: Plant response rating (scale 0 to 100), Johnsongrass): 0%; pest or weed control at 16 g/ha [9, 23]: 10%; pest or weed control at 31 g/ha [9, 23]: 5%; pest or weed control at 62 g/ha ([9]; post-emergence, Postemergence, scale 0 to 100, 0 no effect, 100 complete control, read-out: Plant response rating, Johnsongrass): 35%; pest or weed control at 8 g/ha [9, 24]: 0%; pest or weed control at 16 g/ha [9, 24]: 10%; pest or weed control at 31 g/ha [9, 24]: 60%; pest or weed control at 62 g/ha [9, 24]: 98%; Plant response rating (scale 0 to 100), Oat, Wild (wild oat (Avena fatua); 8 g ai/ha): 5; pest or weed control at 16 g/ha (wild oat (Avena fatua); Avena fatua, post-emergence, 16 g ai/ha, scale 0 to 100 (0 no effect, 100 complete control), read-out: Oat, Wild plant response rating): 10%; pest or weed control at 31 g/ha (wild oat (Avena fatua); Avena fatua, post-emergence, 31 g ai/ha, scale 0 to 100 (0 no effect, 100 complete control), read-out: Oat, Wild plant response rating): 40%; pest or weed control at 62 g/ha (wild oat (Avena fatua); Avena fatua, post-emergence, 62 g ai/ha, scale 0 to 100, 0 no effect, 100 complete control, read-out: Plant response rating, Oat, Wild): 45%; Plant response rating (scale 0 to 100), Kochia (kochia (Kochia scoparia); 8 g ai/ha): 95; pest or weed control at 16 g/ha (kochia (Kochia scoparia); Bassia scoparia, post-emergence, 16 g ai/ha, scale 0 to 100 (0 no effect, 100 complete control), read-out: Kochia plant response rating): 100%; pest or weed control at 31 g/ha (kochia (Kochia scoparia); Bassia scoparia, post-emergence, 31 g ai/ha, scale 0 to 100 (0 no effect, 100 complete control), read-out: Kochia plant response rating): 100%; pest or weed control at 62 g/ha (kochia (Kochia scoparia); Bassia scoparia, post-emergence, 62 g ai/ha, scale 0 to 100, 0 no effect, 100 complete control, read-out: Plant response rating, Kochia): 100%; Plant response rating (scale 0 to 100), Chickweed ([10]; 8 g ai/ha): 50; pest or weed control at 16 g/ha ([10]; Stellaria media, post-emergence, 16 g ai/ha, scale 0 to 100 (0 no effect, 100 complete control), read-out: Chickweed plant response rating): 85%; pest or weed control at 31 g/ha ([10]; Stellaria media, post-emergence, 31 g ai/ha, scale 0 to 100 (0 no effect, 100 complete control), read-out: Chickweed plant response rating): 85%; pest or weed control at 62 g/ha ([10]; Stellaria media, post-emergence, 62 g ai/ha, scale 0 to 100, 0 no effect, 100 complete control, read-out: Plant response rating, Chickweed): 100%
